pEC50: −log10 of the molar value.

Data set [1] deals with Respiratory syncytial virus. Format: functional, cell-based. Particulars: human respiratory syncytial virus, HeLa.
For data set [2], the system named is Punta Toro virus. Format: functional. Particulars: Vero.
The subject of data set [3] is Coxsackievirus B4. Format: functional. Particulars: Enterovirus B, Vero.
In data set [4] the test system is Sindbis virus. Format: functional. Particulars: Vero.
Data set [5] has as its system Mammalian orthoreovirus 1. Format: functional. Particulars: Mammalian orthoreovirus 1, Vero.
The test system of data set [6] is Coxsackievirus B4. Format: functional, cell-based. Particulars: Enterovirus B, HeLa.
Data set [7] concerns MDCK. In words: Cytotoxicity against dog MDCK cells assessed as reduction in cell viability measured after 5 to 6 days by MTS assay. Format: cell-based, Canis lupus familiaris.
For data set [8], the system named is Influenza A virus. Format: functional, cell-based. Particulars: A/Ned/378/05(H1N1), MDCK.
For data set [9], the system named is Influenza A virus. Format: functional, cell-based. Particulars: A/Ned/378/05(H1N1), MDCK. This is another data set of the same source.
Data set [10] is described as follows: cells. Particulars: MDCK.
Data set [11] can be described thus: cells. Particulars: Influenza A virus, MDCK.
Data set [12] can be described thus: cells. Particulars: Influenza A virus, MDCK. This is another data set of the same source.
In data set [13] the test system is Yellow fever virus. In words: microbe, parasite or virus in culture. Particulars: Vero.
For data set [14], the system named is Vesicular stomatitis virus. In words: microbe, parasite or virus in culture. Particulars: HeLa.
Data set [15] concerns Human respirovirus 3. The data set is described as follows: microbe, parasite or virus in culture. Particulars: Human respirovirus 3, Vero.
The test system of data set [16] is Influenza B virus. The data set is described as follows: microbe, parasite or virus in culture. Particulars: B/Ned/537/05, MDCK.
A short description of data set [17]: Cytotoxicity against human HeLa cells assessed as alterations in cell morphology by microscopic analysis. Format: cell-based.
The test system of data set [18] is Respiratory syncytial virus. In words: microbe, parasite or virus in culture. Particulars: human respiratory syncytial virus, HeLa.

What is called pEC50 is −log10 of the EC50, conventionally taken in molar units. The CC50 is the concentration giving 50% cytotoxicity. Take `CC1(C)N=C(N)N=C(Nc2ccc(Cl)cc2)N1`: the pEC50 in data set [1], in [2], in data set [3], in [4], in [5] and in data set [6] was below 4.00 each time. Moreover, the pEC50 in data set [8] is below 4.00; in data set [9] it was below 4.00; in data set [10], below 4.00; in [11] it was below 4.08; in [12], below 4.08; in data set [13], below 4.00. For the same compound, the pEC50 in [14], in data set [15] and in [16] was below 4.00 throughout. For the same compound, in data set [7], the CC50 was above 100 µM.
In the case of `NC1=NC2(CCCCC2)N(c2ccc(Cl)cc2)C(N)=N1`, the pEC50 in [1], in data set [2], in data set [3], in data set [4], in data set [5] and in [6] was below 4.00 in each case. Moreover, the pEC50 in [8] is below 4.00; in data set [9], below 4.00; in data set [10], 4.44; in data set [11], 4.31; in [12] it was 5.00; in data set [13], below 4.00. Moreover, the figures for the pEC50 in [14], in data set [15] and in [16] were below 4.00, below 4.00 and below 4.08, respectively. Moreover, the CC50 in data set [7] was above 100 µM.
In the case of `CC1(C)N=C(N)N=C(N)N1c1cccc(C(F)(F)F)c1`, the MCC in data set [17] was found to be 20 µM. In addition, the pEC50 was below 4.00 in data set [3]; below 4.00 in data set [4]; below 4.00 in [6]; 7.52 in data set [18]; below 4.00 in [13]; below 4.00 in [14]. In [15], this compound gave a pEC50 below 4.00. Further, the CC50 in data set [7] came out at 6.1 µM.
As to `CCCC1N=C(N)N=C(N)N1c1ccc(Cl)cc1` (configuration not stated), the pEC50 in data set [1], in data set [2], in data set [3], in [4], in [5] and in [6] was below 4.00 in each case. The pEC50 in data set [8] was below 4.00; in [9], below 4.00; in [10], below 4.00; in data set [11] it was below 4.08; in data set [12] it was below 4.08; in [13] it was below 4.00. The pEC50 in data set [14] was below 4.00; in data set [15], below 4.00; in data set [16], 4.54. Also, in data set [7], the CC50 was above 100 µM.
For the compound `CC1N=C(N)N=C(N)N1c1ccc(Cl)cc1` (configuration not stated), the pEC50 in data set [1] is 5.17; in [2] it was below 4.00; in data set [3] it was below 4.00; in data set [4], below 4.00; in data set [5], below 4.00; in [6] it was below 4.00. Besides, the pEC50 is below 4.00 in [8]; below 4.00 in data set [9]; 5.31 in data set [10]; below 4.08 in data set [11]; below 4.08 in data set [12]; below 4.00 in data set [13]. Further, the pEC50 in data set [14] was below 4.00; in data set [15], below 4.00; in [16], 4.77. In [7], the CC50 was above 100 µM.
Regarding `NC1=NC(c2ccccc2)N(c2ccc(Cl)cc2)C(N)=N1` (configuration not stated), the pEC50 in [1], in data set [2], in data set [3], in data set [4], in data set [5] and in data set [6] was below 4.00 throughout. The negative-log EC50 (pEC50) is below 4.00 in data set [8]; below 4.00 in [9]; below 4.00 in data set [10]; below 4.08 in [11]; below 4.08 in [12]; below 4.00 in [13]. In addition, the pEC50 in data set [14], in [15] and in data set [16] was below 4.00 each time. The CC50 in data set [7] was above 100 µM.
Consider `N=C(N)NC(=N)Nc1ccc(Cl)cc1` [4-CHLOROPHENYLBIGUANIDE], for which the pEC50 in data set [1], in [2], in [3], in data set [4], in [5] and in data set [6] was below 4.00 in each case. Further, the pEC50 in [8] is below 4.00; in [9] it was below 4.00; in data set [10], below 4.00; in data set [11], below 4.08; in [12] it was below 4.08; in data set [13], below 4.00. Also, the pEC50 in data set [14], in data set [15] and in [16] was below 4.00 in each case. The CC50 in data set [7] is above 100 µM.
Regarding `CC1(C)N=C(N)N=C(N)N1c1ccc(Cl)c(Cl)c1` [CHLORCYCLOGUANIL], the pEC50 was 8.12 in data set [1]; below 4.00 in [2]; below 4.00 in data set [3]; below 4.00 in [4]; 5.42 in [5]; below 4.00 in [6]. The negative-log EC50 (pEC50) in data set [8] is 6.46; in [9] it was 6.26; in [10] it was 7.52; in data set [11], 6.14; in data set [12], 5.85; in data set [13], below 4.00. The results for the pEC50 in [14], in data set [15] and in [16] were below 4.00, below 4.00 and 7.10, respectively. Also, the CC50 in data set [7] was 6.7 µM.
Consider `[H]/N=C(\N/C(=N/[H])Nc1ccc(Cl)cc1)NC(C)C` [PROGUANIL], for which the pEC50 in data set [1], in [2], in data set [3], in data set [4], in data set [5] and in data set [6] was below 4.00 each time. Further, the pEC50 in [8] is below 4.00; in data set [9], below 4.00; in [10], below 4.00; in [11], below 4.08; in data set [12], below 4.08; in data set [13], below 4.00. Moreover, the pEC50 in [14], in data set [15] and in data set [16] was below 4.00 in each case. For the same compound, the CC50 in data set [7] is above 100 µM.

For the origin of these results see ChEMBL document CHEMBL4052640 (Eur J Med Chem, 2017).
